The subject of data set [1] is HSV-2 thymidine kinase mutant Delta 333. In words: Inactivation of drug-resistant HSV-2 TK mutant, plaque reduction assay. It counts as cell-based, herpes simplex virus. The note with it: 37° C. for 1 h, concentration not given.
For the next data set, the system named is HSV-2 (strain G). The experiment in a line: Inactivation of HSV-2 by pre-mixing with drug, plaque reduction assay. It counts as cell-based, herpes simplex virus. The settings on record: concentration 0.005%, pre-mixing for 1 h. How it is done: (§1) HSV strains G (HSV-2) and F (HSV-1) were used in the experiments. A HSV susceptible cell line, Vero cells (African green monkey kidney cell), was used in the virus yield reduction assays. The culture medium for Vero cells was 5% minimum essential medium (MEM; GIBCO/BRL) supplemented with 5% fetal bovine serum, 100 U/ml penicillin and 100 μg/ml streptomycin).
(§2) Confluent cells were washed with PBS and subsequently infected with HSV for 1 h at 37° C. After viral inoculum was removed, the infected cells were washed with PBS and overlaid with 0.5% methylcellulose in culture medium. Cells were incubated at 37° C. for 2 days for HSV-2 infection and 3 days for HSV-1. When plaque size was adequate, cells were fixed with 10% formalin for […]. Monolayers were subsequently stained with 0.5% crystal violet for 10 min, and dye was removed by washing with tap water.
(§3) All data were generated from duplicate or triplicate experiments. Effects of compounds at varying concentrations were expressed as % of control (the mean plaque counts in drug treated wells/the mean plaque counts in control wells).
(§4) HSV G and F strains were diluted to 200 pfu/ml with 5% MEM, respectively. […] Equal volumes of diluted virus and drugs were mixed and incubated at 37° C. water-bath for 1 h. One ml of the mixture was then used to infect confluent Vero cells in 6-well plates at 37° C. for 1 h. […]

For another data set, the system named is HSV-1 (strain F). The experiment in a line: Inactivation of HSV-1 by pre-mixing with drug, plaque reduction assay. Type of data set: cell-based, herpes simplex virus. The note with it: concentration 0.005%, pre-mixing for 1 h. How it is done: as §1, §2, §3, §4
Background: Plaque reduction counts the foci of infection that form in a cell layer.

Data set [2] concerns Vero cells. In words: Cytotoxicity, neutral red uptake assay. The settings on record: after 2 days' incubation, data not shown. Type of data set: cell-based, African green monkey. How it is done:
Culture medium was removed from confluent Vero cells in 24-well plates. The cells were then washed once with PBS. […] Cells were incubated at 37° C. for 1 h, 6 h, 2 and 3 days. At each time point, the medium was removed and cells washed with PBS. 500 μl of 0.01% neutral red (in PBS) was added to each well, and the samples were incubated at 37° C. for 30 min. The dye was then removed and the cells washed×2 with 1 ml PBS per well. The dye was extracted by addition of 500 μl of 50% ethanol/1% glacial acetic acid in PBS to each well and incubated at room temperature for 15 min with gentle shaking at 120-150 rpm. 200 μl extracted dye from each well was put into 96-well plate and the absorbance at 550 nm was read on an ELISA reader.

For data set [3], the system named is Vero cells. The experiment in a line: Cell death seen in the HSV inactivation plaque assays. The note with it: concentration 0.005%. It counts as cell-based, African green monkey. How it is done: HSV G and F strains were diluted to 200 pfu/ml with 5% MEM, respectively. […] Equal volumes of diluted virus and drugs were mixed and incubated at 37° C. water-bath for 1 h. One ml of the mixture was then used to infect confluent Vero cells in 6-well plates at 37° C. for 1 h. After infection, viral inoculum was removed and the cells washed with PBS. The cells were subsequently overlaid with 1.5 ml of 0.5% methylcellullose (diluted from 1% stock with 2×culture medium) for plaque assay.

From patent publication US20030176483A1, “Topical synergistic microbicide” (priority 2002, published 2003) come the findings set out here.

With `CCCCCCCCCCCCOS(=O)(=O)[O-].[Na+]` [SDS], the “inactivation of delta 333” value in data set [1] is “capable of inactivating”. Further, the “inactivation of HSV-2” value in the data set on HSV-2 (strain G) is “effective”. In the data set with HSV-1 (strain F), the “inactivation of HSV-1” value is “effective”. For the same compound, in the data set with Vero cells [2], the “CC50 (cytotoxic concentration giving 50% of cell death)” value is recorded as “approximately 0.005%”. The same compound had a cell death with Vero cells [3] of 50%.
